These results are taken from patent publication US20150342954A1, “2-BENZYL, 3-(PYRIMIDIN-2-YL) SUBSTITUTED PYRAZOLES USEFUL AS SGC STIMULATORS” (IRONWOOD PHARMACEUTICALS, INC., priority 2011, published 2015).

Like-named read-outs stand apart in the source and are kept apart here.

The target of assay [1] is T1, soluble guanylate cyclase (sGC) (Homo sapiens, UniProt Q02108+Q02153).
T1 construct: endogenously expressing soluble guanylate cyclase (sGC); endogenous in cells; host or cells: HEK293
T1 sequence (Q02153 1-619): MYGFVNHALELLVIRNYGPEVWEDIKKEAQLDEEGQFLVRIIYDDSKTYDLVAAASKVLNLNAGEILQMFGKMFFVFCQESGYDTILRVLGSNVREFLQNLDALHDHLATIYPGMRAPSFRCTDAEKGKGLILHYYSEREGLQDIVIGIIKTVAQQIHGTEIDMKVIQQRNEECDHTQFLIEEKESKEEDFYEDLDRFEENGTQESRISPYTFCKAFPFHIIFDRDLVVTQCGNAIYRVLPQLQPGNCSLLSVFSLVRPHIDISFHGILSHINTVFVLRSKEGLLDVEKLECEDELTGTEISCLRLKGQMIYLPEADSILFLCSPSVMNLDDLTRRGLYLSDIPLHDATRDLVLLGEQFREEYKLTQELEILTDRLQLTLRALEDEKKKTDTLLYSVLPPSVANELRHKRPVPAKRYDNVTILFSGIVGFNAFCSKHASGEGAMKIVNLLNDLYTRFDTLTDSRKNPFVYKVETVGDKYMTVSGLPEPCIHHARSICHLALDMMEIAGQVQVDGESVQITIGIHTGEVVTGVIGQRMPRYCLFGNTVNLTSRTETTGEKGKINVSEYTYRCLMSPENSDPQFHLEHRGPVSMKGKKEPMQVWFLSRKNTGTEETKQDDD
T1 sequence (Q02108 1-690): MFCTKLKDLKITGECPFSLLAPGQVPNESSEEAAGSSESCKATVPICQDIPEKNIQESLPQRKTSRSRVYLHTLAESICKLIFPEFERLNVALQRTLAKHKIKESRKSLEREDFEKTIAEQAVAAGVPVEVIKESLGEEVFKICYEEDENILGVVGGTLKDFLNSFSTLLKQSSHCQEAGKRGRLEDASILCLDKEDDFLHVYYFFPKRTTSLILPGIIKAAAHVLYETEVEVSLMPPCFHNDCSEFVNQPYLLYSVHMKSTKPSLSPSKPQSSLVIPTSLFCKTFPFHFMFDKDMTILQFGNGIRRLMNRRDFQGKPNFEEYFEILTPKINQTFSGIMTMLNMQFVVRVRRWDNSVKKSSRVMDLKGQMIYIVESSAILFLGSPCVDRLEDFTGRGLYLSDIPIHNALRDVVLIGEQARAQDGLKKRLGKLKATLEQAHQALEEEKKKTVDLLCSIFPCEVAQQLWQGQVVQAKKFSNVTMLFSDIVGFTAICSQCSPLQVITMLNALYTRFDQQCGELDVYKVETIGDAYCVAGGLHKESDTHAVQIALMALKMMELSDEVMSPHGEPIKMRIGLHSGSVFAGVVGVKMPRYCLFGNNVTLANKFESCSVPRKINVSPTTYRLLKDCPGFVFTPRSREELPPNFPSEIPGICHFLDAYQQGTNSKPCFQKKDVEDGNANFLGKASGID
The assay is described as follows: sGC-HEK-cGMP assay (run with SNP incubation). It is filed as cell-based. The conditions noted are these: for Emax: Table 3A, 10 μM SNP, 100% = 30 μM BAY 41-2272 with 10 μM SNP, read-out: HEK assay Emax-unconstrained (Percent); for HEK MEC-10: concentration that would elicit 10% of the Emax in the presence of 10 μM SNP; for HEK MEC-10 / EC50: Table 3D; for EC50: in the presence of 10 μM SNP. A digest of the protocol:
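HEK293 cells with endogenous sGC were pre-treated 15 min at 37 °C with 0.5 mM IBMX, then exposed to test compound plus sodium nitroprusside for 10 min at 37 °C. Cells were lysed in 0.1 M HCl (4 °C, 30 min), and cGMP was quantified by LC/MS against a standard curve. EC50 values came from concentration-response curves.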

The target of assay [2] is T2, Human soluble guanylate cyclase enzyme (hsGC) (Homo sapiens, UniProt Q02108+Q02153).
T2 construct: purchased Enzo Inc. ALX-201-177
T2 sequence (Q02153 1-619): T1 sequence (Q02153 1-619)
T2 sequence (Q02108 1-690): T1 sequence (Q02108 1-690)
The assay is described as follows: Purified human sGC enzyme synergy assay in the presence of 1 μM sodium nitroprusside (SNP). In kind it is biochemical. To be noted: compound at 30 μM, presence of 1 μM SNP; Table 5A. A digest of the protocol: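 Purified hsGC (5 ng) incubated 30 min at 37 °C with compound (10 or 30 μM final) in Tris pH 8.0, 300 μM GTP, 1 mM IBMX, 2 mM MgCl2, with or without 1 μM SNP; stopped with cold methanol. cGMP quantified against standard curve; specific activity expressed as fold-change over DMSO control.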

Where [3] appears, read: top of concentration-response curve not fitted to 100%.
[4] abbreviates: top of concentration-response curve not fitted to 100%, read-out: HEK assay EC50-unconstrained.

A word on the Emax: it is the maximal effect, on the per cent scale that the assay sets. As usually defined, the EC50 is the concentration giving half of the maximal effect. In the case of `Nc1nc(-c2cc(-c3ccon3)n(Cc3cccc(F)c3F)n2)ncc1NC(=O)C1(C(F)(F)F)CC1` [Compound 40], the maximal effect (Emax) in assay [1] (setting [3]) is 80 to 100%. Also, the “HEK MEC-10” value in assay [1] was “C (0.1 to <1 μM)”. For the same compound, the results for the concentration for a half-maximal effect (EC50) in assay [1] (read-out: HEK assay EC50) and in assay [1] (setting [4]) were under 20000 nM and 10 to 500 nM, respectively. For the same compound, the “Enzyme Activity (increase at 30 μM with SNP)” value in assay [2] is listed as “D (10 or <20 fold increase)”.
On to `Nc1nc(-c2cc(-c3ccon3)n(Cc3ccccc3F)n2)ncc1NC(=O)C1(F)CC1` [Compound 35], for which the maximum response (Emax) in assay [1] (setting [3]) was in the range of 80 to 100%. The “HEK MEC-10” value in assay [1] is “A (0.001 to <0.01 μM)”. Also, the concentration for a half-maximal effect (EC50) in assay [1] (read-out: HEK assay EC50) is under 20000 nM; in assay [1] (setting [4]), 10 to 500 nM. Further, the “Enzyme Activity (increase at 30 μM with SNP)” value in assay [2] is given as “E (20 to 30 fold increase)”.
In the case of `Nc1nc(-c2cc(-c3ccon3)n(Cc3ccccc3F)n2)ncc1NC(=O)C1(c2ccccc2)CC1` [Compound 27], the Emax in assay [1] (setting [3]) is 80 to 100%. Further, the “HEK MEC-10” value in assay [1] is listed as “B (0.01 to <0.1 μM)”. The EC50 in assay [1] (read-out: HEK assay EC50) is under 20000 nM; in assay [1] (setting [4]) it was 10 to 500 nM. Moreover, the “Enzyme Activity (increase at 30 μM with SNP)” value in assay [2] was “D (10 or <20 fold increase)”.
